1 compound from paper PMC5464333, “The binding orientations of structurally-related ligands can differ; A cautionary note” (Neuropharmacology, 2017) can be followed below.

What is called Ki is the dissociation constant of the complex between target and ligand, obtained from inhibition or displacement. Low values mean a stronger hold on the target, high ones a looser hold on the target.

Assay [1] addresses T1, 5-HT3A receptor wild type (Homo sapiens, UniProt P46098).
T1 construct: expressed in transfected cells; host or cells: HEK293, transient, pcDNA3.1
T1 sequence (P46098 24-478): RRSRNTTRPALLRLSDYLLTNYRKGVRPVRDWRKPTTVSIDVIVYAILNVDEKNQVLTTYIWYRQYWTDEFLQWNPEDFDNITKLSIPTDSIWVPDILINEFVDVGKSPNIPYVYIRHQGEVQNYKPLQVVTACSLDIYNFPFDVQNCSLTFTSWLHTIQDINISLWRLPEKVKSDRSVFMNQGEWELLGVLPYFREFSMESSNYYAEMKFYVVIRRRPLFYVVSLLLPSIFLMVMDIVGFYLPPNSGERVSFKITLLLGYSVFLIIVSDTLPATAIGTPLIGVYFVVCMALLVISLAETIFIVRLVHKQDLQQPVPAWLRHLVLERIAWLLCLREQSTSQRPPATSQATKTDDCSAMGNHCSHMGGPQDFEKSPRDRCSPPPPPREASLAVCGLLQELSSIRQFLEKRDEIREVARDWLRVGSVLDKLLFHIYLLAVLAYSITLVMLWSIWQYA
In words: Saturation radioligand binding, wild type 5-HT3A receptor in HEK293. The conditions noted are these: wild type 5-HT3 receptors. Here is the method: (§1) Human 5-HT3A subunit cDNA (Accession: P46098, kindly provided by J. Peters, Dundee University, UK) was cloned into pcDNA3.1 for expression in HEK293 cells. […] Cells were transiently transfected with either of these cDNA constructs using polyethyleneimine (PEI: 25 kDa, linear, powder, Polysciences Inc., Eppelheim, Germany). 30 μl of PEI (1 mg ml^−1), 5 μg cDNA and 1 ml DMEM were incubated for 10 min at room temperature, added drop wise to a 90 mm plate of 70–80% conﬂuent HEK293 cells, and incubated for 2–3 days before use.
Transfected HEK 293 cells were scraped into 0.6 ml of ice-cold 10 mM HEPES buffer (pH 7.4) and frozen. After thawing, they were washed with HEPES buffer, homogenised by trituration through a 25 gauge (0.5 mm) needle, and 50 μg of cell suspension incubated in 0.5 ml HEPES buffer containing different concentrations of radioligand. […] Equilibrium reactions were incubated on ice for at least 1 h and terminated by vacuum filtration onto Whatman GF/B filters wetted with 0.3% polyethyleneimine, followed by two rapid washes with 2.5 ml ice cold buffer. Radioactivity was measured by scintillation in Ultima Gold XR (Perkin Elmer, Waltham, MA) using a Tri-Carb 2100 TR (PerkinElmer) scintillation counter. Final counts were monitored to ensure that binding never exceeded 10% of the added concentrations of radioligands.
(§2) All data were analysed using GraphPad Prism v5. […]

For assay [2], the target named is T2, 5-HT3A receptor P155C mutant (Homo sapiens, UniProt P46098, P150C).
T2 construct: expressed in transfected cells; host or cells: HEK293, transient, pcDNA3.1
T2 sequence (P46098 24-478 P150C): T1 sequence (P46098 24-478) with P127C
The assay is described as follows: Saturation radioligand binding, 5-HT3A P155C mutant. Particulars: P155C versus wild type. Here is the method:
Mutagenesis was performed using the QuikChange method (Agilent Technologies Inc., California, USA). Cysteine residues were substituted for amino acids throughout each of the binding loops A - E (Fig. 1). To facilitate comparisons with previous work, we have used the numbering of the equivalent residues in the mouse 5-HT3A subunit (Q6J1J7).
as §1
Transfected HEK 293 cells were scraped into 0.6 ml of ice-cold 10 mM HEPES buffer (pH 7.4) and frozen. […] Radioactivity was measured by scintillation in Ultima Gold XR (Perkin Elmer, Waltham, MA) using a Tri-Carb 2100 TR (PerkinElmer) scintillation counter. Final counts were monitored to ensure that binding never exceeded 10% of the added concentrations of radioligands.
as §2

Another assay concerns the target α7 nACh receptor (UniProt P22770+P23979, M226I/T225I). The assay is described as follows: Competition binding with [3H]epibatidine at α7 nACh receptors. On the set-up: a chimaera of the chick α7 nACh extracellular domain fused to the 5-HT3 transmembrane/intracellular domains; expressed in transfected cells; host or cells: HEK293 cells, transient transfection (pcDNA3.1, PEI); species or system chick. Here is the method: as §1, with “J.” for “J. Peters, Dundee University, UK) was cloned into pcDNA3.1 for expression in HEK293 cells.”, “use. […] Non-specific binding was determined with 30 μM (-)/-nicotine. Equilibrium reactions were incubated on ice for at least 1 h and bound radioligand measured using the same method as described above.” for “use.”

The structures appear in SMILES notation. Positions count from the first letter of the chain named. Where only a bound is given, the exact number is not on record here.

α7 nACh receptor, sequence (P22770+P23979 fused P22770:T225I/P22770:M226I): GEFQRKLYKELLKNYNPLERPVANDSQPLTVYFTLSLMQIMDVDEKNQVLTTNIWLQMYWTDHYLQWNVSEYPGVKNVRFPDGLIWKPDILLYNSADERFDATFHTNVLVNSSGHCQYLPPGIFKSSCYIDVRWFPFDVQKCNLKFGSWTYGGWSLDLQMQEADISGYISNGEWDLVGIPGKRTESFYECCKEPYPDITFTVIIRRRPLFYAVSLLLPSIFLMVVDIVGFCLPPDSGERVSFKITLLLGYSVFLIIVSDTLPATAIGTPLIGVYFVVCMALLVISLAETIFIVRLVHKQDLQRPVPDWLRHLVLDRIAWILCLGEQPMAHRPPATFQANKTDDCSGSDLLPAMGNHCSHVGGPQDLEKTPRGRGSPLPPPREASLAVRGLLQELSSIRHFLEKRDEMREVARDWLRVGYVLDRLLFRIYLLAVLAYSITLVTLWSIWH

With `CN1[C@@H]2CC[C@H]1C[C@@H](OC(=O)c1c[nH]c3ccccc13)C2` [tropisetron, Tropisetron], the “Non-specific binding, of total” value in assay [1] came to 30.3 ± 1.8%. In addition, the decrease in affinity in assay [2] was 5 fold. Further, at α7 nACh receptor (5-HT3 versus α7 nACh), the “difference in affinity at 5-HT3 versus α7 nACh receptors” value is more than 1000 fold. Besides, on α7 nACh receptor (competition with [3H]epibatidine), affinity was put at a Ki of 1.58 ± 0.84 µM.
